Each structure is given as a SMILES string. Where only a bound is given, the exact number is not on record here.

T1 sequence (Q9UQD0 whole entry): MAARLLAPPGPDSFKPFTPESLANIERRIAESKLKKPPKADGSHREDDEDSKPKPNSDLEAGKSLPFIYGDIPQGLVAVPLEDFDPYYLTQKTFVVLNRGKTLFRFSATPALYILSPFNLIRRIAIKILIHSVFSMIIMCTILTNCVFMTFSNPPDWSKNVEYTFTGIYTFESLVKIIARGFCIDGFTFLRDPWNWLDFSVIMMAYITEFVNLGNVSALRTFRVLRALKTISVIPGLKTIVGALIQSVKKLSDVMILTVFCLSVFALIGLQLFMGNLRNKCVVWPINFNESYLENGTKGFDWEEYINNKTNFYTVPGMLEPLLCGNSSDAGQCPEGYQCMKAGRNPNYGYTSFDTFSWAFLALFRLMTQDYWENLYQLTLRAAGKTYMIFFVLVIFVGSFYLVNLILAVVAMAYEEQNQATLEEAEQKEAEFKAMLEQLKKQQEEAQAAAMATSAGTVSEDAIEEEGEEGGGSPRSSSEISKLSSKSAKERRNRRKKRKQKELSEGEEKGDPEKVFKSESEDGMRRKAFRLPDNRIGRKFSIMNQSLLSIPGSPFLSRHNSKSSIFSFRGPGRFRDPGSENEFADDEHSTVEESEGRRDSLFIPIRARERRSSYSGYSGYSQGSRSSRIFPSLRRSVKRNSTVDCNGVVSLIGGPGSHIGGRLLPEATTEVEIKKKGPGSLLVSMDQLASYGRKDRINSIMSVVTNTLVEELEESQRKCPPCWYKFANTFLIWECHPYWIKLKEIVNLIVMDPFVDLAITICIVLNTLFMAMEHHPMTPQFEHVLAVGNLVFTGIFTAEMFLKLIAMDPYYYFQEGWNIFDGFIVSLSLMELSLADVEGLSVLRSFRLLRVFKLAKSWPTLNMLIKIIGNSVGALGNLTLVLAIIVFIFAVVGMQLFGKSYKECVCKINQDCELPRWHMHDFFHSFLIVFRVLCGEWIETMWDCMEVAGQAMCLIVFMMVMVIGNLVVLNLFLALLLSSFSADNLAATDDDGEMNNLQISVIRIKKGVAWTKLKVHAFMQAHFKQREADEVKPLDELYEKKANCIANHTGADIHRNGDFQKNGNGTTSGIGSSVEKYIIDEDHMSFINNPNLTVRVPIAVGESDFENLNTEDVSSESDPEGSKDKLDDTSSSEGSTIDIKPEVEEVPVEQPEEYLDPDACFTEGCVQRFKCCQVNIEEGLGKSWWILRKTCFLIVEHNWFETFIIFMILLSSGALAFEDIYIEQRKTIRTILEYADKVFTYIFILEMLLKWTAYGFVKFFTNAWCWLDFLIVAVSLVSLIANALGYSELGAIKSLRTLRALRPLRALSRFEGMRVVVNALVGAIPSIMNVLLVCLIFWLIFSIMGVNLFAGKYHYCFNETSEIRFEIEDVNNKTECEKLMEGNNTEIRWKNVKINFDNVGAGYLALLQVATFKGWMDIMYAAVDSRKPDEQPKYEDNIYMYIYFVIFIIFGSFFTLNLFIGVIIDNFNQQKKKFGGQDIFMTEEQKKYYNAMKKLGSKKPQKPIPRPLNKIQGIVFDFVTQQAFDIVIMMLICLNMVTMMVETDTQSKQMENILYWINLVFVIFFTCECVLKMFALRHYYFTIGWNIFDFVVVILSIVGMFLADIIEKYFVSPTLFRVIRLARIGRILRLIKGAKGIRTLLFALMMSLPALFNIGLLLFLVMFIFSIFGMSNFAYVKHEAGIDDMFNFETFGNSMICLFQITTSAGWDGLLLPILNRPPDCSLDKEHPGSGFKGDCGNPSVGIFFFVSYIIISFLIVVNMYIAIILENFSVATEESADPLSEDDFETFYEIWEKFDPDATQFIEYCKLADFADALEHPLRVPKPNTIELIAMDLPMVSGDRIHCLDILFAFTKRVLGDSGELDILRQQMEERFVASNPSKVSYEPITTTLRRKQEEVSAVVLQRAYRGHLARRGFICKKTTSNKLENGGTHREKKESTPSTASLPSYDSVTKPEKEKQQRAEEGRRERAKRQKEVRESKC

The test has as its target T1, human NaV1.6 (hNaV1.6) (Homo sapiens, UniProt Q9UQD0).
T1 construct: expressed in transfected cells; host or cells: HEK-293
Briefly: Modulation of late sodium current (INaL), PatchXpress electrophysiology, HEK-293 cells expressing hNaV1.6. The test is classed as cell-based. The conditions noted are these: HEK293, late current evoked by 300 nM ATX-II, read-out: NaV 1.6 Assay Data: percent inhibition of INaL at hNaV1.6. The method, then:
Functional characterization of exemplary compounds to modulate INaL expressed by the NaV1.6 voltage-gated sodium channel was accomplished using the PatchXpress™ high throughput electrophysiology platform (Molecular Devices, Sunnyvale, Calif.). HEK-293 cells expressing recombinant, human NaV1.6 (hNaV1.6) were grown in DMEM/high-glucose Dulbecco's modified, 10% FBS, 2 mM sodium pyruvate, 10 mM HEPES and 400 μg/mL G418. Cells were grown to 50%-80% confluency prior to harvesting. Trypsinized cells were washed, allowed to recover for 1 hour and then resuspended in extracellular recording solution at a concentration of 1×10^6 cells/ml. The onboard liquid handling facility of the PatchXpress was used for dispensing cells and applying test compounds. NaV late currents were evoked by the application of 300 nM ATX-II. INaL was evoked by depolarizing pulses to 0 mV for 200 ms from a non-inactivating holding potential (e.g., −120 mV) at a frequency of 0.1 Hz. INaL amplitude and stability were determined by analyzing the mean current amplitude over the final 20 ms of the test pulse. Following steady state block with exemplary compounds (e.g., as described herein), a Na+ free solution containing an impermeant cation (e.g., Choline or NDMG) was added to confirm the identify of the sodium current. Percent steady-state inhibition of INaL was calculated as: [(INaL_compound)/(INaL_control)]*100, where INaL_compound and INaL_control represent INaL recorded in the presence or absence of compound, respectively.
In general, inhibition refers to the percentage by which the read-out fell short of the control. Turning to `CCOC(F)(F)c1nnc2cnc(-c3cnc(O[C@@H](C)C(F)(F)F)c(F)c3)c(C)n12` [Compound 67, 3-[ethoxy(difluoro)methyl]-6-[5-fluoro-6-[(1S)-2,2,2-trifluoro-1-methyl-ethoxy]-3-pyridyl]-5-methyl-[1,2,4]triazolo[4,3-a]pyrazine], the inhibition at 1 µM is more than 70%.
The figure for `COC(F)(F)c1nnc2cc(C)c(-c3cnc(O[C@@H](C)C(F)(F)F)c(F)c3)nn12` [Compound 68, 3-[difluoro(methoxy)methyl]-6-[5-fluoro-6-[(1S)-2,2,2-trifluoro-1-methyl-ethoxy]-3-pyridyl]-7-methyl-[1,2,4]triazolo[4,3-b]pyridazine] is more than 70%; for `COCc1nnc2cc(C)c(-c3cnc(OC(C)(C)C(F)(F)F)c(F)c3)nn12` [Compound 69, 6-[5-fluoro-6-(2,2,2-trifluoro-1,1-dimethyl-ethoxy)-3-pyridyl]-3-(methoxymethyl)-7-methyl-[1,2,4]triazolo[4,3-b]pyridazine] it is 30 to 70%.
As for `COCc1nnc2cc(C)c(-c3cnc(O[C@@H](C)C(F)(F)F)c(F)c3)nn12` [Compound 70, 6-[5-fluoro-6-[(1S)-2,2,2-trifluoro-1-methyl-ethoxy]-3-pyridyl]-3-(methoxymethyl)-7-methyl-[1,2,4]triazolo[4,3-b]pyridazine], the figure is less than 30%; as for `COCc1nnc2cc(C)c(-c3cnc(OCC(F)(F)F)c(F)c3)nn12` [Compound 71, 6-[5-fluoro-6-(2,2,2-trifluoroethoxy)-3-pyridyl]-3-(methoxymethyl)-7-methyl-[1,2,4]triazolo[4,3-b]pyridazine], less than 30%.
For `COCc1nnc2cc(C)c(-c3cnc(O[C@H](C)C(F)(F)F)c(F)c3)nn12` [Compound 72, 6-[5-fluoro-6-[(1R)-2,2,2-trifluoro-1-methyl-ethoxy]-3-pyridyl]-3-(methoxymethyl)-7-methyl-[1,2,4]triazolo[4,3-b]pyridazine], the inhibition at 1 µM was less than 30%.
For `COC(F)(F)c1nnc2cnc(-c3ccc(OC4CC(F)(F)C4)nc3)cn12` [Compound 73, 3-(difluoro(methoxy)methyl)-6-(6-(3,3-difluorocyclobutoxy)pyridin-3-yl)-[1,2,4]triazolo[4,3-a]pyrazine], the inhibition at 1 µM was more than 70%.
In the case of `FC(F)(F)COc1ccc(-c2cn3c(C(F)(F)OC4CC4)nnc3cn2)cn1` [Compound 74, 3-(cyclopropoxydifluoromethyl)-6-(6-(2,2,2-trifluoroethoxy)pyridin-3-yl)-[1,2,4]triazolo[4,3-a]pyrazine], the inhibition at 1 µM was more than 70%.
As for `Fc1cc(-c2cn3c(C(F)(F)OC4CC4)nnc3cn2)cnc1OCC(F)(F)F` [Compound 75, 3-(cyclopropoxydifluoromethyl)-6-(5-fluoro-6-(2,2,2-trifluoroethoxy)pyridin-3-yl)-[1,2,4]triazolo[4,3-a]pyrazine], the figure is more than 70%; as for `COC(F)(F)c1nnc2cnc(-c3cnc(OC4CC(F)(F)C4)c(F)c3)cn12` [Compound 76, 3-(difluoro(methoxy)methyl)-6-(6-(3,3-difluorocyclobutoxy)-5-fluoropyridin-3-yl)-[1,2,4]triazolo[4,3-a]pyrazine], more than 70%; as for `CCOC(F)(F)c1nnc2cnc(-c3cnc(OC4CC(F)(F)C4)c(F)c3)cn12` [Compound 77, 6-(6-(3,3-difluorocyclobutoxy)-5-fluoropyridin-3-yl)-3-(ethoxydifluoromethyl)-[1,2,4]triazolo[4,3-a]pyrazine], more than 70%.
`FC1(F)CC(Oc2ccc(-c3cn4c(C(F)(F)OC5CC5)nnc4cn3)cn2)C1` [Compound 78, 3-(cyclopropoxydifluoromethyl)-6-(6-(3,3-difluorocyclobutoxy)pyridin-3-yl)-[1,2,4]triazolo[4,3-a]pyrazine]: the inhibition at 1 µM is more than 70%.
The figure for `CCOCc1nnc2cnc(-c3cnc(OC(C)(C)C(F)(F)F)c(F)c3)cn12` [Compound 79, 3-(ethoxymethyl)-6-(5-fluoro-6-((1,1,1-trifluoro-2-methylpropan-2-yl)oxy)pyridin-3-yl)-[1,2,4]triazolo[4,3-a]pyrazine] is more than 70%.
As for `CCOC(F)(F)c1nnc2cnc(-c3ccc(OCC(F)(F)F)nc3)cn12` [Compound 81, 3-(ethoxydifluoromethyl)-6-(6-(2,2,2-trifluoroethoxy)pyridin-3-yl)-[1,2,4]triazolo[4,3-a]pyrazine], the inhibition at 1 µM is more than 70%.
The figure for `CC(C)COC(F)(F)c1nnc2cnc(-c3cnc(OCC(F)(F)F)c(F)c3)cn12` [Compound 82, 3-(difluoro(isobutoxy)methyl)-6-(5-fluoro-6-(2,2,2-trifluoroethoxy)pyridin-3-yl)-[1,2,4]triazolo[4,3-a]pyrazine] is more than 70%; for `COC(F)(F)c1nnc2ccc(-c3cnc(OC4CC(F)(F)C4)c(F)c3)cn12` [Compound 84, 3-(difluoro(methoxy)methyl)-6-(6-(3,3-difluorocyclobutoxy)-5-fluoropyridin-3-yl)-[1,2,4]triazolo[4,3-a]pyridine] it is more than 70%.
As for `CCOC(F)(F)c1nnc2ccc(-c3cnc(OC4CC(F)(F)C4)c(F)c3)cn12` [Compound 85, 6-(6-(3,3-difluorocyclobutoxy)-5-fluoropyridin-3-yl)-3-(ethoxydifluoromethyl)-[1,2,4]triazolo[4,3-a]pyridine], the figure is more than 70%; as for `CCOC(F)(F)c1nnc2cnc(-c3ccc(O[C@H](C)C(F)(F)F)nc3)cn12` [Compound 86, (R)-3-(ethoxydifluoromethyl)-6-(6-((1,1,1-trifluoropropan-2-yl)oxy)pyridin-3-yl)-[1,2,4]triazolo[4,3-a]pyrazine], more than 70%.
On to `COCc1nnc2ccc(-c3ccc(OC(C)(C)C(F)(F)F)nc3)cn12` [Compound 87, 3-(methoxymethyl)-6-(6-((1,1,1-trifluoro-2-methylpropan-2-yl)oxy)pyridin-3-yl)-[1,2,4]triazolo[4,3-a]pyridine], for which the inhibition at 1 µM lay in the range of 30 to 70%.
The figure for `CCOC(F)(F)c1nnc2cnc(-c3ccc(OC(C)(C)C(F)(F)F)nc3)cn12` [Compound 88, 3-(ethoxydifluoromethyl)-6-(6-((1,1,1-trifluoro-2-methylpropan-2-yl)oxy)pyridin-3-yl)-[1,2,4]triazolo[4,3-a]pyrazine] is more than 70%; for `COCCOC(F)(F)c1nnc2cnc(-c3ccc(OCC(F)(F)F)nc3)cn12` [Compound 89] it is 30 to 70%.

(Values after patent US11731976B2, “3-(ethoxydifluoromethyl)-6-(5-fluoro-6-(2,2,2-trifluoroethoxy)pyridin-3-yl)-[1,2,4]triazolo[4,3-a]pyridine as an ion channel modulator” (Praxis Precision Medicines, Inc., priority 2018, dated 2023).)
